Results published in patent US20150166523A1, “BRANCHED CHAIN ALKYL HETEROAROMATIC RING DERIVATIVE” (TAISHO PHARMACEUTICAL CO., LTD., priority 2012, published 2015).

Columns and labels:
[1] = molecular target: T1, orexin-2 receptor (hOX2R) (Homo sapiens, UniProt O43614); test: Measurement of orexin antagonistic activity (intracellular Ca2+ fluorescence, FDSS) on hOX2R; format: cell-based; settings: CHO cells forcibly expressing hOX2R; Fluo-4AM; ligand peptide (substituted human orexin-A) 3 nM; compound preincubated 30 minutes; read-out: IC50 Value OX2
T1 construct: expressed in transfected cells; host or cells: Chinese hamster ovary (CHO) cells
T1 sequence (O43614 1-444): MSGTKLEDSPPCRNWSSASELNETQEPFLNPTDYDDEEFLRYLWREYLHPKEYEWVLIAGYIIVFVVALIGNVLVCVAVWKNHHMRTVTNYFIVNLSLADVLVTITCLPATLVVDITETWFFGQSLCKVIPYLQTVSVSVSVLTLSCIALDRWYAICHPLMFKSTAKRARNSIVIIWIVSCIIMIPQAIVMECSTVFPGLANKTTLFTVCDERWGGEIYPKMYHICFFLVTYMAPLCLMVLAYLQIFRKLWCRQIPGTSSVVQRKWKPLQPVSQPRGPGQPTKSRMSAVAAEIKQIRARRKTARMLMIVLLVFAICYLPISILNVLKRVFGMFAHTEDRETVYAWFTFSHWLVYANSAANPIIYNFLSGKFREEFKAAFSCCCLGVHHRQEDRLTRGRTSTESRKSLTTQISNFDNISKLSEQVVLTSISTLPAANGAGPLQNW
Experimental: (§1) The antagonistic activities of the test compounds on human orexin-1 receptor (hOX1R) and orexin-2 receptor (hOX2R) were measured by modifying from the method described in literature (Toshikatsu Okumura et al., Biochemical and Biophysical Research Communications, 280, 976-981, 2001). Chinese hamster ovary (CHO) cells forcibly expressing the hOX1R and hOX2R were seeded into a 96 well Black clear bottom plate (Nunc) at 20,000 cells per well, which were cultured in Ham's F-12 medium containing 0.1 mM MEM non-essential amino acids, 0.5 mg/mL G418, 10% fetal bovine serum (all by Invitrogen) for 16 hours under the conditions of 37° C., 5% CO2. After removing the medium, 100 μL of 0.5 μM Fluo-4AM ester (Dojin) in an assay buffer (25 mM HEPES (Dojin), Hank's balanced salt solution (Invitrogen), 0.1% bovine serum albumin, 2.5 mM probenecid, 200 μg/mL Amaranth (all by Sigma-Aldrich), pH 7.4) was added and the cells were incubated for 60 minutes at 37° C., 5% CO2. After removing the assay buffer containing fluo-4AM ester, the test compound was dissolved in dimethyl sulfoxide to be 10 mM and diluted with the assay buffer, 150 μL, of which was added and incubated for 30 minutes.
(§2) The reaction was measured for the fluorescence intensity of each well every second for 3 minutes using Functional Drug Screening System (FDSS; Hamamatsu Photonics K.K.), and the antagonistic activity was determined using the maximum fluorescence intensity as the indicator of intracellular Ca2+ concentration.

[2] = molecular target: T2, human orexin-1 receptor (hOX1R) (Homo sapiens, UniProt O43613); test: Measurement of orexin antagonistic activity (intracellular Ca2+ fluorescence, FDSS) on hOX1R; format: cell-based; settings: CHO cells forcibly expressing hOX1R; Fluo-4AM; ligand peptide (substituted human orexin-A) 300 pM; compound preincubated 30 minutes; read-out: IC50 Value OX1
T2 construct: expressed in transfected cells; host or cells: Chinese hamster ovary (CHO) cells
T2 sequence (O43613 1-425): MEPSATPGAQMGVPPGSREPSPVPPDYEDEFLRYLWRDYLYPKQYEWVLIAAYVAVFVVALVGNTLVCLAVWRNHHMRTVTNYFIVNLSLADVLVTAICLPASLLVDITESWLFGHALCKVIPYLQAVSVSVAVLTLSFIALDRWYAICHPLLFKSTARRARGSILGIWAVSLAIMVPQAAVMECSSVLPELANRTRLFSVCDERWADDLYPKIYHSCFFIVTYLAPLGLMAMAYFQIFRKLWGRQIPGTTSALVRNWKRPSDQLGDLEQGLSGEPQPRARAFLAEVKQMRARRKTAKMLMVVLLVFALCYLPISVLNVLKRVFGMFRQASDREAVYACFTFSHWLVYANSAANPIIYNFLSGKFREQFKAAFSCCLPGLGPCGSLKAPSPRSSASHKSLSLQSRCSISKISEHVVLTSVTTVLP
Experimental: as §1, §2

IC50 [1] [nM] | IC50 [2] [nM] | SMILES
75.7 | 2 | CCN(C(=O)c1ccccc1-c1ncccn1)[C@@H](C)Cc1noc(-c2ccc(F)cc2)n1 [Example 54, N-Ethyl-N-{(2S)-1-[5-(4-fluorophenyl)-1,2,4-oxadiazol-3-yl]propan-2-yl}-2-(pyrimidin-2-yl)benzamide]
186 | 17.4 | CCN(C(=O)c1cc(C)ccc1-n1nccn1)[C@H](C)Cn1ccc(-c2ccc(F)cn2)n1 [Example 2, N-Ethyl-N-{(2R)-1-[3-(5-fluoropyridin-2-yl)-1H-pyrazol-1-yl]propan-2-yl]-5-methyl-2-(2H-1,2,3-triazol-2-yl) benzamide]
59.7 | 1 | CCN(C(=O)c1cc(C)ccc1-n1nccn1)[C@@H](C)Cc1nnc(-c2ccc(F)cc2)o1 [Example 76, N-Ethyl-N-{(2S)-1-[5-(4-fluorophenyl)-1,3,4-oxadiazol-2-yl]propan-2-yl}-5-methyl-2-(2H-1,2,3-triazol-2-yl)benzamide]
1030 | 37.7 | CCN(C(=O)c1nc(C)ccc1-n1nccn1)[C@@H](C)Cn1nnc(-c2ccc(F)cn2)n1 [Example 86, N-Ethyl-N-{(2S)-1-[5-(5-fluoropyridin-2-yl)-2H-tetrazol-2-yl]propan-2-yl}-6-methyl-3-(2H-1,2,3-triazol-2-yl)pyridine-2-carboxamide]
32.2 | 1.1 | CCN(C(=O)c1nc(C)ccc1-n1nccn1)[C@@H](C)Cc1noc(-c2ccc(F)cc2)n1 [Example 49, N-Ethyl-N-{(2S)-1-[5-(4-fluorophenyl)-1,2,4-oxadiazol-3-yl]propan-2-yl}-6-methyl-3-(2H-1,2,3-triazol-2-yl)pyridine-2-carboxamide]
51.4 | 3.1 | CCN(C(=O)c1cc(F)ccc1-n1nccn1)[C@@H](C)Cn1cc(-c2ccc(F)cc2)nn1 [Example 84, N-Ethyl-5-fluoro-N-{(2S)-1-[4-(4-fluorophenyl)-1H-1,2,3-triazol-1-yl]propan-2-yl}-2-(2H-1,2,3-triazol-2-yl)benzamide]
7810 | 687 | CCN(C(=O)c1nc(C)ccc1-c1ncccn1)[C@@H](C)Cn1cc(-c2ccc(F)cn2)nn1 [Example 80, N-Ethyl-N-{(2S)-1-[4-(5-fluoropyridin-2-yl)-1H-1,2,3-triazol-1-yl]propan-2-yl}-6-methyl-3-(pyrimidin-2-yl)pyridine-2-carboxamide]
108 | 9.3 | CCN(C(=O)c1cc(C)ccc1-n1nccn1)[C@@H](C)Cn1cc(-c2ccccn2)nn1 [Example 94, N-Ethyl-5-methyl-N-{(2S)-1-[4-(pyridin-2-yl)-1H-1,2,3-triazol-1-yl]propan-2-yl}-2-(2H-1,2,3-triazol-2-yl) benzamide]
188 | 8.1 | CCN(C(=O)c1ccccc1-n1nccn1)[C@@H](C)Cn1cc(-c2ccc(F)cn2)cn1 [Example 21, N-Ethyl-N-{(2S)-1-[4-(5-fluoropyridin-2-yl)-1H-pyrazol-1-yl]propan-2-yl}-2-(2H-1,2,3-triazol-2-yl)benzamide]
53.9 | 1.9 | CCN(C(=O)c1c(F)cccc1-c1ncccn1)[C@@H](C)Cn1ccc(-c2ccc(F)cc2)n1 [Example 13, N-Ethyl-2-fluoro-N-[(2S)-1-[3-(4-fluorophenyl)-1H-pyrazol-1-yl]propan-2-yl)-6-(pyrimidin-2-yl)benzamide]
12.8 | 0.2 | CCN(C(=O)c1ccccc1-c1ncccn1)[C@@H](C)Cn1ccc(-c2ccc(F)cc2)n1 [Example 10, N-Ethyl-N-[(2S)-1-[3-(4-fluorophenyl)-1H-pyrazol-1-yl]propan-2-yl)-2-(pyrimidin--2-yl) benzamide]
8.4 | 1.2 | Cc1ccc(-c2ncccn2)c(C(=O)N(C)[C@@H](C)Cn2ccc(-c3ccc(F)cn3)n2)c1 [Example 6, N-{(2S)-1-[3-(5-Fluoropyridin-2-yl)-1H-pyrazol-1-yl]propan-2-yl}-N,5-dimethyl-2-(pyrimidin-2-yl) benzamide]
21.8 | 1.3 | CCN(C(=O)c1cc(C)ccc1-n1nccn1)[C@@H](C)Cn1cc(-c2ccc(F)cc2)nn1 [Example 71, N-Ethyl-N-{(2S)-1-[4-(4-fluorophenyl)-1H-1,2,3-triazol-1-yl]propan-2-yl}-5-methyl-2-(2H-1,2,3-triazol-2-yl)benzamide]
1890 | 134 | Cc1ccc(-n2nccn2)c(C(=O)N(C)[C@H](Cn2ccc(-c3ccc(F)cn3)n2)C(C)C)c1 [Example 23, N-{(2S)-1-[3-(5-Fluoropyridin-2-yl)-1H-pyrazol-1-yl]-3-methylbutan-2-yl}-N,5-dimethyl-2-(2H-1,2,3-triazol-2-yl) benzamide]
214 | 6.8 | CCN(C(=O)c1cc(F)ccc1-n1nccn1)[C@@H](C)Cn1cc(-c2ccc(F)cn2)cn1 [Example 36, N-Ethyl-5-fluoro-N-{(2S)-1-[4-(5-fluoropyridin-2-yl)-1H-pyrazol-1-yl]propan-2-yl}-2-(2H-1,2,3-triazol-2-yl) benzamide]
10.1 | 2.1 | CCN(C(=O)c1cc(F)ccc1-c1ncccn1)[C@@H](C)Cn1ccc(-c2ccc(F)c(F)c2)n1 [Example 17, N-{(2S)-1-[3-(3,4-Difluorophenyl)-1H-pyrazol-1-yl]propan-2-yl}-N-ethyl-5-fluoro-2-(pyrimidin-2-yl)benzamide]
75.5 | 3.3 | Cc1ccc(-n2nccn2)c(C(=O)N(C)[C@@H](C)Cc2noc(-c3ccc(F)cn3)n2)c1 [Example 45, N-{(2S)-1-[5-(5-Fluoropyridin-2-yl)-1,2,4-oxadiazol-3-yl]propan-2-yl}-N,5-dimethyl-2-(2H-1,2,3-triazol-2-yl)benzamide]
5.5 | 1.2 | COCCN(C(=O)c1cc(C)ccc1-n1nccn1)[C@@H](C)Cn1ccc(-c2ccc(F)cc2)n1 [Example 39, N-{(2S)-1-[3-(4-Fluorophenyl)-1H-pyrazol-1-yl]propan-2-yl}-N-(2-methoxyethyl)-5-methyl-2-(2H-1,2,3-triazol-2-yl)benzamide]
41.2 | 13.4 | CCN(C(=O)c1cc(C)ccc1-c1ncccn1)[C@@H](C)Cn1nnc(-c2ccc(F)cn2)n1 [Example 88, N-Ethyl-N-{(2S)-1-[5-(5-fluoropyridin-2-yl)-2H-tetrazol-2-yl]propan-2-yl}-5-methyl-2-(pyrimidin-2-yl)benzamide]
279 | 203 | Cc1ccc(-n2nccn2)c(C(=O)N(CCC#N)[C@@H](C)Cn2cc(-c3ccc(F)cc3)nn2)c1 [Example 91, N-(2-Cyanoethyl)-N-{(2S)-1-[4-(4-fluorophenyl)-1H-1,2,3-triazol-1-yl]propan-2-yl}-5-methyl-2-(2H-1,2,3-triazol-2-yl) benzamide]
64.6 | 2.5 | CCN(C(=O)c1cc(C)ccc1-n1nccn1)[C@@H](C)Cn1cc(-c2ccc(Cl)cc2)nn1 [Example 92, N-{(2S)-1-[4-(4-Chlorophenyl)-1H-1,2,3-triazol-1-yl]propan-2-yl}-N-ethyl-5-methyl-2-(2H-1,2,3-triazol-2-yl)benzamide]
351 | 25.5 | COCCN(C(=O)c1cc(C)ccc1-n1nccn1)[C@@H](C)Cn1cc(-c2ccc(F)cn2)cn1 [Example 38, N-{(2S)-1-[4-(5-Fluoropyridin-2-yl)-1H-pyrazol-1-yl]propan-2-yl}-N-(2-methoxyethyl)-5-methyl-2-(2H-1,2,3-triazol-2-yl)benzamide]
